In patent publication US20230050965A1, “SSTR5 ANTAGONISTS” (Kallyope, Inc., priority 2019, published 2023) one finds IC50 data, which are given here for ten compounds.

This assay deals with T1, human SSTR5 (Homo sapiens, UniProt P35346).
T1 construct: expressed in transfected cells
T1 sequence (P35346 whole entry): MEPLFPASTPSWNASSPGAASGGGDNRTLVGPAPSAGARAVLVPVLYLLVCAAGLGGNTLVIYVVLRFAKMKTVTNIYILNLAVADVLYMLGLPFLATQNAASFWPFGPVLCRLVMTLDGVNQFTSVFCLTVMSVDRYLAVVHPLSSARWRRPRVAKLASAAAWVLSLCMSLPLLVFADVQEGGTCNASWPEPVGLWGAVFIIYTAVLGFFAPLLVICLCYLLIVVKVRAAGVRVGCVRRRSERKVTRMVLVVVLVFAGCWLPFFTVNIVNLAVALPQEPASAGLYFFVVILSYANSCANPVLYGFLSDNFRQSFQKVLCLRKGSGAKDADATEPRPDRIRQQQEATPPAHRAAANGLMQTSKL
In words: Inositol phosphate (IP1) accumulation assay, antagonist mode. The conditions noted are these: CHO-K1 cells stably co-expressing human SSTR5 with Gqi5; pre-incubation with antagonist, then SST28 agonist; IP1 HTRF readout. Format: cell-based. From the text: Inositol Phosphate Accumulation Assay
CHO-K1 cells stably co-expressing human SSTR5 with Gqi5 were developed using Jump-In technology from Thermo-Fisher. Gqi5 is the mouse G alpha q protein, that was modified to interact with Gi-coupled GPCRs as described previously (Coward, P.; Chan, S. D.; Wada, H. G.; Humphries, G. M.; Conklin, B. R. Chimeric G proteins Allow a High-Throughput Signaling Assay of Gi-Coupled Receptors. Anal Biochem. 1999, 270(2), 242-248).
Co-expression of Gqi5 with SSTR5 allowed monitoring of SSTR5 activity by following IP1 accumulation. The assay was performed in a 384-well plate format using the IP1 assay kit from Cis-Bio in an antagonist mode, i.e., pre-incubation with antagonist following by receptor activation by agonist at a concentration generating 90% of full activation. Frozen cells expressing human SSTR5 were thawed, washed, and then plated in DMEM supplemented with 10% FBS and non-essential amino acids. 40 μL of 2.5×10^5 cells/mL were plated on a Poly D-Lysine coated 384-well white plate. The cells were then incubated for 16 hr. at 37° C./5% CO2. After 16 hour the medium was removed, and 10 μL of stimulation buffer was added to the cells. Test compounds were dissolved in DMSO at concentrations 2000-fold that of the final assay concentrations. 7.5 nL compound solutions were transferred to the cell plates using a Labcyte Echo® acoustic liquid handler. The plates were then incubated for 15 minutes at 37° C./5% CO2. After the first incubation, 5 μL of 30 nM SST28 were added to the cells, and the cells were incubated for 90 minutes at 37° C./5% CO2. 5 μL of detection buffer (prepared as described in the IP-1 kit) was added to each well, and the plates were incubated at RT for 1 hour.
TR-FRET was measured using a ClarioSTAR plate reader, calculating the ratio between emissions at 665 nm and 620 nm (HTRF ratio). The HTRF ratio for positive (Max) and negative (Min) controls were used to normalize HTRF data and generate values for % inhibition. IC50 and maximal inhibition values were determined using a standard 4-parameter fit.
A general note: In TR-FRET formats the signal depends on donor and acceptor labels being close together.
As usually defined, the IC50 is the concentration at which inhibition is half-maximal. Higher therefore signals weaker potency in that assay. Consider `CCOc1cc(-c2ccc(F)cc2)c(C2CC2)cc1CN1CCC2(CC1)CN([C@H]1CC[C@@H](P(=O)(O)O)CC1)C(=O)O2` (single isomer, unassigned) [Compound 33, ((cis)-4-(8-((2-cyclopropyl-5-ethoxy-4'-fluoro-[1,1'-biphenyl]-4-yl)methyl)-2-oxo-1-oxa-3,8-diazaspiro[4.5]decan-3-yl)cyclohexyl)phosphonic acid], for which the IC50 is not above 100 nM.

As for `CCOc1cc(-c2ccc(F)cc2)c(C2CC2)cc1CN1CCC2(CC1)CN([C@H]1CC[C@H](P(=O)(O)O)CC1)C(=O)O2` (single isomer, unassigned) [Compound 34, ((trans)-4-(8-((2-cyclopropyl-5-ethoxy-4'-fluoro-[1,1'-biphenyl]-4-yl)methyl)-2-oxo-1-oxa-3,8-diazaspiro[4.5]decan-3-yl)cyclohexyl)phosphonic acid], the IC50 was not above 100 nM. The same measure for `CCOc1nc(-c2ccc(F)cc2)c(C2CC2)cc1CN1CCC2(CC1)CN(c1ccc(P(C)(=O)O)cc1)C(=O)O2` [Compound 4, (4-(8-((5-cyclopropyl-2-ethoxy-6-(4-fluorophenyl)pyridin-3-yl)methyl)-2-oxo-1-oxa-3,8-diazaspiro[4.5]decan-3-yl)phenyl)(methyl)phosphinic acid]: not above 100 nM; for `CCOc1cc(-c2ccc(F)cc2)c(C2CC2)cc1CN1CCC2(CC1)CN(c1ccc(P(=O)(O)O)cn1)C(=O)O2` [Compound 5, (6-(8-((2-cyclopropyl-5-ethoxy-4′-fluoro-[1,1′-biphenyl]-4-yl)methyl)-2-oxo-1-oxa-3,8-diazaspiro[4.5]decan-3-yl)pyridin-3-yl)phosphonic acid]: not above 100 nM; for `CCOc1cc(-c2ccc(F)cc2)c(C2CC2)cc1CN1CCC2(CC1)CN(c1ccc(P(=O)(O)O)nc1)C(=O)O2` [Compound 6, (5-(8-((2-cyclopropyl-5-ethoxy-4′-fluoro-[1,1′-biphenyl]-4-yl)methyl)-2-oxo-1-oxa-3,8-diazaspiro[4.5]decan-3-yl)pyridin-2-yl)phosphonic acid]: not above 100 nM. To `CCOc1cc(-c2ccc(F)cc2)c(C2CC2)cc1CN1CCC2(CC1)CC(=O)N(c1ccc(P(C)(=O)O)cc1)C2` [Compound 7, (4-(8-((2-cyclopropyl-5-ethoxy-4′-fluoro-[1,1′-biphenyl]-4-yl)methyl)-3-oxo-2,8-diazaspiro[4.5]decan-2-yl)phenyl)(methyl)phosphinic acid] belongs not above 100 nM.

The compound `CCOc1cc(C#N)c(C2CC2)cc1CN1CCC2(CC1)CN(c1ccc(P(C)(=O)O)cc1)C(=O)O2` [Compound 8, (4-(8-(4-cyano-5-cyclopropyl-2-ethoxybenzyl)-2-oxo-1-oxa-3,8-diazaspiro[4.5]decan-3-yl)phenyl)(methyl)phosphinic acid] returned a concentration for half-maximal inhibition (IC50) not above 100 nM. The same measure for `CCOc1nc(-c2ccc(F)cc2)c(C2CC2)cc1CN1CCC2(CC1)CN(c1ccc(P(=O)(O)O)cc1)C(=O)O2` [Compound 10, (4-(8-((5-cyclopropyl-2-ethoxy-6-(4-fluorophenyl)pyridin-3-yl)methyl)-2-oxo-1-oxa-3,8-diazaspiro[4.5]decan-3-yl)phenyl)phosphonic acid]: not above 100 nM; for `CCOc1nc(-c2ccc(F)cc2)c(C2CC2)cc1CN1CCC2(CC1)CN(C13CC(CP(=O)(O)O)(C1)C3)C(=O)O2` [Compound 11, ((3-(8-((5-cyclopropyl-2-ethoxy-6-(4-fluorophenyl)pyridin-3-yl)methyl)-2-oxo-1-oxa-3,8-diazaspiro[4.5]decan-3-yl)bicyclo[1.1.1]pentan-1-yl)methyl)phosphonic acid]: not above 100 nM; for `CCOc1cc(-c2ccc(F)cc2)c(C2CC2)cc1CN1CCC2(CC1)CN(C13CC(CP(=O)(O)O)(C1)C3)C(=O)O2` [Compound 12, ((3-(8-((2-cyclopropyl-5-ethoxy-4′-fluoro-[1,1′-biphenyl]-4-yl)methyl)-2-oxo-1-oxa-3,8-diazaspiro[4.5]decan-3-yl)bicyclo[1.1.1]pentan-1-yl)methyl)phosphonic acid]: not above 100 nM.
